Test results: PMC10233829 (ACS Omega, 2023)
In brackets after ≈: the same amount, converted by molar mass.

Test system: M. tuberculosis Spec 210
Test: microbe, parasite or virus in culture
Type: cell-based, Mycobacterium tuberculosis
Conditions: for MIC M. tuberculosis Spec 210 (multidrug-resistant): MABA; for MIC: Mycobacterium tuberculosis, SPEC210, read-out: MIC M. tuberculosis Spec 210 (multidrug-resistant), MABA

Compound	MIC M. tuberculosis Spec 210 (multidrug-resistant) [µg/mL]	MIC [µg/mL]
C=CC(=O)N1CCN(c2cc3c(cc2F)c(=O)c(C(=O)O)cn3C2CC2)CC1 [Compound 1, 7-(4-Acryloyl-piperazin-1-yl)-1-cyclopropyl-6-fluoro-4-oxo-1,4-dihydro-quinoline-3-carboxylic Acid]	2 (≈ 5.19 µM)	1 to 2 (≈ 2.59 to 5.19 µM)
O=C(O)c1cn(C2CC2)c2cc(N3CCN(C(=O)C4CC4)CC3)c(F)cc2c1=O [Compound 2, 7-(4-Cyclopropanecarbonyl-piperazin-1-yl)-1-cyclopropyl-6-fluoro-4-oxo-1,4-dihydro-quinoline-3-carboxylic Acid]	–	≤ 0.25
O=C(O)c1cn(C2CC2)c2cc(N3CCN(C(=O)CCl)CC3)c(F)cc2c1=O [Compound 3, 7-[4-(2-Chloroacetyl)-piperazin-1-yl]-1-cyclopropyl-6-fluoro-4-oxo-1,4-dihydro-quinoline-3-carboxylic Acid]	2 (≈ 4.9 µM)	1 to 2 (≈ 2.45 to 4.9 µM)
O=C(O)c1cn(C2CC2)c2cc(N3CCN(C(=O)CCCl)CC3)c(F)cc2c1=O [Compound 4, 7-[4-(3-Chloropropionyl)-piperazin-1-yl]-1-cyclopropyl-6-fluoro-4-oxo-1,4-dihydro-quinoline-3-carboxylic Acid]	2 (≈ 4.74 µM)	1 to 2 (≈ 2.37 to 4.74 µM)
O=C(O)c1cn(C2CC2)c2cc(N3CCN(C(=O)CCCCl)CC3)c(F)cc2c1=O [Compound 5, 7-[4-(4-Chlorobutyryl)-piperazin-1-yl]-1-cyclopropyl-6-fluoro-4-oxo-1,4-dihydro-quinoline-3-carboxylic Acid]	–	≤ 0.25
O=C(O)c1cn(C2CC2)c2cc(N3CCN(C(=O)CCCCCl)CC3)c(F)cc2c1=O [Compound 6, 7-[4-(5-Chloropentanoyl)-piperazin-1-yl]-1-cyclopropyl-6-fluoro-4-oxo-1,4-dihydro-quinoline-3-carboxylic Acid]	–	≤ 0.25
O=C(O)c1cn(C2CC2)c2cc(N3CCN(C(=O)CCCCCCl)CC3)c(F)cc2c1=O [Compound 7, 7-[4-(6-Chlorohexanoyl)-piperazin-1-yl]-1-cyclopropyl-6-fluoro-4-oxo-1,4-dihydro-quinoline-3-carboxylic Acid]	–	≤ 0.25
O=C(O)c1cn(C2CC2)c2cc(N3CCN(C(=O)CBr)CC3)c(F)cc2c1=O [Compound 8, 7-[4-(2-Bromoacetyl)-piperazin-1-yl]-1-cyclopropyl-6-fluoro-4-oxo-1,4-dihydro-quinoline-3-carboxylic Acid]	–	8 (≈ 17.7 µM)
O=C(O)c1cn(C2CC2)c2cc(N3CCN(C(=O)CCBr)CC3)c(F)cc2c1=O [Compound 9, 7-[4-(3-Bromopropionyl)-piperazin-1-yl]-1-cyclopropyl-6-fluoro-4-oxo-1,4-dihydro-quinoline-3-carboxylic Acid]	1 (≈ 2.14 µM)	1 to 2 (≈ 2.14 to 4.29 µM)
O=C(O)c1cn(C2CC2)c2cc(N3CCN(C(=O)CCCBr)CC3)c(F)cc2c1=O [Compound 10, 7-[4-(4-Bromobutyryl)-piperazin-1-yl]-1-cyclopropyl-6-fluoro-4-oxo-1,4-dihydro-quinoline-3-carboxylic Acid]	–	≤ 0.25
O=C(O)c1cn(C2CC2)c2cc(N3CCN(C(=O)CCCCBr)CC3)c(F)cc2c1=O [Compound 11, 7-[4-(5-Bromopentanoyl)-piperazin-1-yl]-1-cyclopropyl-6-fluoro-4-oxo-1,4-dihydro-quinoline-3-carboxylic Acid]	–	≤ 0.25
O=C(O)c1cn(C2CC2)c2cc(N3CCN(C(=O)CCCCCBr)CC3)c(F)cc2c1=O [Compound 12, 7-[4-(6-Bromohexanoyl)-piperazin-1-yl]-1-cyclopropyl-6-fluoro-4-oxo-1,4-dihydro-quinoline-3-carboxylic Acid]	–	≤ 0.25
O=C(O)c1cn(C2CC2)c2cc(N3CCN(C(=O)CCCCCCCCCCBr)CC3)c(F)cc2c1=O [Compound 13, 7-[4-(11-Bromoundekanoyl)-piperazin-1-yl]-1-cyclopropyl-6-fluoro-4-oxo-1,4-dihydro-quinoline-3-carboxylic Acid]	1 (≈ 1.73 µM)	1 to 2 (≈ 1.73 to 3.46 µM)
O=C(O)c1cn(C2CC2)c2cc(N3CCN(C(=O)CC(F)(F)F)CC3)c(F)cc2c1=O [Compound 14, 7-[4-(3,3,3-Trifluoropropionyl)-piperazin-1-yl]-1-cyclopropyl-6-fluoro-4-oxo-1,4-dihydro-quinoline-3-carboxylic Acid]	–	32 (≈ 72.5 µM)
O=C(O)c1cn(C2CC2)c2cc(N3CCN(C(=O)CCC(F)(F)F)CC3)c(F)cc2c1=O [Compound 15, 7-[4-(4,4,4-Trifluorobutyryl)-piperazin-1-yl]-1-cyclopropyl-6-fluoro-4-oxo-1,4-dihydro-quinoline-3-carboxylic Acid]	–	32 (≈ 70.3 µM)
O=C(O)c1cn(C2CC2)c2cc(N3CCN(C(=O)CCCC(F)(F)F)CC3)c(F)cc2c1=O [Compound 16, 7-[4-(5,5,5-Trifluoropentanoyl)-piperazin-1-yl]-1-cyclopropyl-6-fluoro-4-oxo-1,4-dihydro-quinoline-3-carboxylic Acid]	–	32 (≈ 68.2 µM)
O=C(O)c1cn(C2CC2)c2cc(N3CCN(CC(=O)N4CCN(c5cc6c(cc5F)c(=O)c(C(=O)O)cn6C5CC5)CC4)CC3)c(F)cc2c1=O [Compound 17, CP–Acetyl–CP Dimer]	–	16 (≈ 22.8 µM)
O=C(O)c1cn(C2CC2)c2cc(N3CCN(CCCC(=O)N4CCN(c5cc6c(cc5F)c(=O)c(C(=O)O)cn6C5CC5)CC4)CC3)c(F)cc2c1=O [Compound 18, CP–Butyryl–CP Dimer]	–	4 (≈ 5.47 µM)
O=C(O)c1cn(C2CC2)c2cc(N3CCN(CCCCC(=O)N4CCN(c5cc6c(cc5F)c(=O)c(C(=O)O)cn6C5CC5)CC4)CC3)c(F)cc2c1=O [Compound 19, CP–Pentanoyl–CP Dimer]	1 (≈ 1.34 µM)	1 to 2 (≈ 1.34 to 2.69 µM)
O=C(O)c1cn(C2CC2)c2cc(N3CCN(CCCCCC(=O)N4CCN(c5cc6c(cc5F)c(=O)c(C(=O)O)cn6C5CC5)CC4)CC3)c(F)cc2c1=O [Compound 20, CP–Hexanoyl–CP Dimer]	–	16 (≈ 21.1 µM)
O=C(O)c1cn(C2CC2)c2cc(N3CCN(CCCCCCCCCCC(=O)N4CCN(c5cc6c(cc5F)c(=O)c(C(=O)O)cn6C5CC5)CC4)CC3)c(F)cc2c1=O [Compound 21, CP–Undecanoyl–CP Dimer]	1 (≈ 1.21 µM)	1 to 2 (≈ 1.21 to 2.41 µM)
CC[C@@H](CO)NCCN[C@@H](CC)CO [ethambutol(EMB), ethambutol, reference compound]	–	32 (≈ 157 µM)
NNC(=O)c1ccncc1 [isoniazid (INH), isoniazid, reference compound]	–	16 (≈ 117 µM)
CO[C@H]1/C=C/O[C@@]2(C)Oc3c(C)c(O)c4c(O)c(c(/C=N/N5CCN(C)CC5)c(O)c4c3C2=O)NC(=O)/C(C)=C\C=C\[C@H](C)[C@H](O)[C@@H](C)[C@@H](O)[C@@H](C)[C@H](OC(C)=O)[C@@H]1C [rifampicin (RMP), rifampicin, reference compound]	–	32 (≈ 38.9 µM)
[H]/N=C(/N)N[C@H]1[C@H](O)[C@@H](O)[C@H](O[C@@H]2O[C@@H](C)[C@](O)(C=O)[C@H]2O[C@@H]2O[C@@H](CO)[C@H](O)[C@@H](O)[C@@H]2NC)[C@@H](N/C(N)=N\[H])[C@@H]1O [streptomycin (SM), streptomycin, reference compound]	–	16 (≈ 27.5 µM)
